Assay [1] relates to H37Rv M. tuberculosis (strain ATCC 25618). The experiment in a line: Mycobacterium tuberculosis susceptibility assay REMA (resazurin microtiter assay). Particulars: for MIC: Mycobacterium tuberculosis, 144 h, read-out: REMA MIC; for REMA MIC: Table 2. The class given is cell-based. In general terms: Alamar Blue is a resazurin reagent that responds to reducing activity.
The next assay concerns HepG2 cell line. Put plainly: In vitro cytotoxicity assay (MTS tetrazolium reduction). It is filed as cell-based. Particulars: HepG2, 48 h. As for the experimental part:
In an embodiment, in vitro cytotoxicity assay was carried out. In vitro cytotoxicity assay was performed in HepG2 cell line using a tetrazolium reduction assay for cell viability evaluation (MTS reduction as described by Cory A. et al (Cancer Commun. 1991, 3 (7), 207-212)). The assay was performed in 96-well plates for 48 h at 37° C. and 5% CO2 in incubation medium (low glucose DMEM with Glutamax, 10% FBS, 1% Pen/Strep and DMSO). Cells were exposed to 8 different compound concentrations in successive dilutions (usually, base 2), plus a positive control (a compound in a concentration known to decrease cell viability above 50%) and a negative control (incubation medium). Six replicate wells were assayed for each condition. Compound stock solutions were prepared in DMSO at 20 mM, whenever possible, filter sterilized, aliquoted and stored at −20° C. The maximum compound concentrations tested depend on its solubility in incubation medium, and on the maximum DMSO percentage allowable without loss of cell viability. At the end of the incubation period, tetrazolium reagent was added (CellTiter 96′ AQueous Solution from Promega); cells were incubated for another 3 hours in order to promote tetrazolium reduction to formazan by viable cells. The amount of soluble formazan produced was evaluated by 490 nm absorbance reading in a spectrophotometer plate reader. […] Whenever possible, IC50 was calculated as the concentration of compound that reduces cell viability by 50%.
Background: Formazan colour is commonly taken as a measure of viable cells.

[2] abbreviates: MTB growth REMA, H37Rv, Middlebrook 7H9, 6 days at 37° C.
The mark [3] stands for this setting: Table 1, MTB growth REMA, H37Rv, Middlebrook 7H9, 6 days at 37° C.
Where [4] appears, read: Homo sapiens, Table 1, cytotoxicity, MTS, read-out: IC50.
Where [5] appears, read: Table 2, cytotoxicity, MTS, read-out: IC50.

≈ marks a conversion by molar mass, not a printed value. Where a name gives a salt, the structure may show the parent alone. Read-outs that look alike come from different tables or passages of the source.

As usually defined, the MIC is the lowest concentration found to suppress growth. What is called IC50 is the concentration that inhibits the measured activity by half.

Consider `COc1cccc2ccc(N3CCC(c4nc(-c5ccc(C(F)(F)F)cc5)no4)CC3)nc12` [Compound 5, 5-(1-(8-methoxyquinolin-2-yl)piperidin-4-yl)-3-(4-(trifluoromethyl)phenyl)-1,2,4-oxadiazole hydrochloride], for which the MIC in assay [1] fell in the range of 7.8 to 15.6 µM. In addition, the half-inhibitory concentration (IC50) with HepG2 cell line (Homo sapiens) is 50 to 100 µM.
Consider `COc1cc(OC)cc(-c2noc(C3CCN(c4ccc5cccc(OC)c5n4)CC3)n2)c1` [Compound 6, 3-(3,5-dimethoxyphenyl)-5-(1-(8-methoxyquinolin-2-yl)piperidin-4-yl)-1,2,4-oxadiazole], for which the MIC in assay [1] lay within 7.8 to 15.6 µM (≈ 3.48 to 6.97 µg/mL). For the same molecule, the “REMA MIC” value in assay [1] (setting [2]) is on record as “+++ (7.8-15.6)”. The IC50 was > 100 µM in the assay on HepG2 cell line (Homo sapiens) and > 100 µM in the assay on HepG2 cell line (Table 2, cytotoxicity, MTS).
Turning to `COc1cccc2ccc(N3CCC(c4nc(-c5cccc(C(F)(F)F)c5)no4)CC3)nc12` [Compound 7, 5-(1-(8-methoxyquinolin-2-yl)piperidin-4-yl)-3-(3-(trifluoromethyl)phenyl)-1,2,4-oxadiazole], the MIC in assay [1] lay in the range of 15.6 to 31.5 µM (≈ 7.09 to 14.3 µg/mL). Besides, in the assay with HepG2 cell line (Homo sapiens), the IC50 is > 100 µM.
On to `COc1cccc2ccc(N3CCC(c4nc(-c5cccnc5)no4)CC3)nc12` [Compound 10, 5-(1-(8-methoxyquinolin-2-yl)piperidin-4-yl)-3-(pyridin-3-yl)-1,2,4-oxadiazole hydrochloride], for which, in assay [1], the MIC lay in the range of 15.6 to 31.5 µM. The molecule also came in with a half-inhibitory concentration (IC50) in the assay with HepG2 cell line (Homo sapiens) of 50 to 100 µM.
With `COc1cccc2ccc(N3CCC(c4nc(-c5ccc(C(F)(F)F)nc5)no4)CC3)nc12` [Compound 11, 5-(1-(8-methoxyquinolin-2-yl)piperidin-4-yl)-3-(6-(trifluoromethyl)pyridin-3-yl)-1,2,4-oxadiazole], in assay [1], the MIC is < 7.8 µM. Also, the IC50 with HepG2 cell line (Homo sapiens) lay in the range of 20 to 50 µM.
Take `Clc1cccc2ccc(N3CCC(c4nc(-c5cccnc5)no4)CC3)nc12` [Compound 18, 5-(1-(8-chloroquinolin-2-yl)piperidin-4-yl)-3-(pyridin-3-yl)-1,2,4-oxadiazole hydrochloride]: in assay [1], the MIC lay within 15.6 to 31.5 µM. For the same molecule, in the assay with HepG2 cell line (Homo sapiens), the IC50 was in the range of 50 to 100 µM.
Regarding `COc1ccc2nc(N3CCC(c4nc(-c5cccnc5)no4)CC3)ccc2c1` [Compound 21, 5-(1-(6-methoxyquinolin-2-yl)piperidin-4-yl)-3-(pyridin-3-yl)-1,2,4-oxadiazole], the MIC in assay [1] (setting [3]) was < 7.8 µM. The “REMA MIC” value in assay [1] (setting [2]) is “++++ (<7.8)”. Moreover, the IC50 with HepG2 cell line (setting [4]) and in the assay with HepG2 cell line (setting [5]) was > 100 µM throughout.
Regarding `COc1cccc2ccc(N3CCC(c4nc(-c5ccc(O)cc5)no4)CC3)nc12` [Compound 24, 4-(5-(1-(8-methoxyquinolin-2-yl)piperidin-4-yl)-1,2,4-oxadiazol-3-yl)phenol], the MIC in assay [1] (setting [3]) lay within 7.8 to 15.6 µM (≈ 3.14 to 6.28 µg/mL). For the same molecule, the “REMA MIC” value in assay [1] (setting [2]) is recorded as “+++ (7.8-15.6)”. In addition, the IC50 with HepG2 cell line (setting [4]) and with HepG2 cell line (setting [5]) was > 100 µM throughout.
As to `c1cncc(-c2noc(C3CCN(c4ccc5cc(-c6ccncc6)ccc5n4)CC3)n2)c1` [Compound 27, 3-(pyridin-3-yl)-5-(1-(6-(pyridin-4-yl)quinolin-2-yl)piperidin-4-yl)-1,2,4-oxadiazole], the MIC in assay [1] (setting [3]) was < 7.8 µM. In addition, the “REMA MIC” value in assay [1] (setting [2]) is recorded as “++++ (<7.8)”. Also, the IC50 with HepG2 cell line (setting [4]) and in the assay on HepG2 cell line (setting [5]) was > 100 µM in each case.
Turning to `COc1cccc2ccc(N3CCC(c4nc(-c5ccc(Cl)nc5)no4)CC3)nc12` [Compound 31, 3-(6-chloropyridin-3-yl)-5-(1-(8-methoxyquinolin-2-yl)piperidin-4-yl)-1,2,4-oxadiazole hydrochloride], the MIC in assay [1] fell in the range of 15.6 to 31.5 µM. In the assay with HepG2 cell line (Homo sapiens), the concentration for half-maximal inhibition (IC50) is 20 to 50 µM.
On to `COc1cccc2ccc(N3CCC(c4nc(-c5ccc(N6CCCCC6)nc5)no4)CC3)nc12` [Compound 33, 5-(1-(8-methoxyquinolin-2-yl)piperidin-4-yl)-3-(6-(piperidin-1-yl)pyridin-3-yl)-1,2,4-oxadiazole], for which the MIC in assay [1] was < 7.8 µM. Moreover, in assay [1] (setting [2]), the “REMA MIC” value is “++++ (<7.8)”. For the same molecule, the IC50 was > 100 µM in the assay on HepG2 cell line (Homo sapiens) and > 100 µM with HepG2 cell line (Table 2, cytotoxicity, MTS).
Consider `COc1cccc2ccc(N3CCC(c4nc(-c5ccc(N6CCNCC6)nc5)no4)CC3)nc12` [Compound 34, 5-(1-(8-methoxyquinolin-2-yl)piperidin-4-yl)-3-(6-(piperazin-1-yl)pyridin-3-yl)-1,2,4-oxadiazole], for which, in assay [1] (setting [3]), the MIC was 15.6 to 31.5 µM (≈ 7.36 to 14.9 µg/mL). The IC50 in the assay with HepG2 cell line (setting [4]) is < 20 µM.
On to `COc1cccc2ccc(N3CCC(c4nc(-c5ccc(NCCO)nc5)no4)CC3)nc12` [Compound 35, 2-((5-(5-(1-(8-methoxyquinolin-2-yl)piperidin-4-yl)-1,2,4-oxadiazol-3-yl)pyridin-2-yl)amino)ethan-1-ol hydrochloride], for which the MIC in assay [1] was 15.6 to 31.5 µM. Also, in the assay on HepG2 cell line (Homo sapiens), the IC50 is > 100 µM.
`COc1cccc2ccc(N3CCC(c4nc(-c5ccc(N6CCCC6)nc5)no4)CC3)nc12` [Compound 50, 5-(1-(8-methoxyquinolin-2-yl)piperidin-4-yl)-3-(6-(pyrrolidin-1-yl)pyridin-3-yl)-1,2,4-oxadiazole hydrochloride]: in assay [1], the MIC fell in the range of 7.8 to 15.6 µM. The “REMA MIC” value in assay [1] (setting [2]) was “+++ (7.8-15.6)”. Besides, the IC50 was > 100 µM in the assay on HepG2 cell line (Homo sapiens) and > 100 µM in the assay on HepG2 cell line (Table 2, cytotoxicity, MTS).

The record behind these values is patent US20240279217A1, “Heterocyclic compounds for the treatment of tuberculosis” (TECNIMEDE - SOCIEDADE TÉCNICO-MEDICINAL, SA, priority 2021, published 2024).
